Measurements: patent US20180000778A1, “SMALL MOLECULE ANTAGONISTS OF DUSP5 AND METHODS OF USE” (THE MEDICAL COLLEGE OF WISCONSIN, INC., priority 2015, published 2018)
Several values for one entry are separate records, joined by “and”; a condition that tells them apart may be missing. Equal values may be shown once. Where a name gives a salt, the structure may show the parent alone. One block for each compound: values may come before it.

Key:
phosphatase [1] = conditions: cited from earlier work
full-length DUSP5 = target: T1, full-length DUSP5 (Homo sapiens, UniProt Q16690); assay: ERK dephosphorylation assay, full-length DUSP5 with pERK2 substrate, western blot; format: biochemical
T1 construct: an assay was development using ERK2 and full-length DUSP5
T1 sequence (Q16690 1-384): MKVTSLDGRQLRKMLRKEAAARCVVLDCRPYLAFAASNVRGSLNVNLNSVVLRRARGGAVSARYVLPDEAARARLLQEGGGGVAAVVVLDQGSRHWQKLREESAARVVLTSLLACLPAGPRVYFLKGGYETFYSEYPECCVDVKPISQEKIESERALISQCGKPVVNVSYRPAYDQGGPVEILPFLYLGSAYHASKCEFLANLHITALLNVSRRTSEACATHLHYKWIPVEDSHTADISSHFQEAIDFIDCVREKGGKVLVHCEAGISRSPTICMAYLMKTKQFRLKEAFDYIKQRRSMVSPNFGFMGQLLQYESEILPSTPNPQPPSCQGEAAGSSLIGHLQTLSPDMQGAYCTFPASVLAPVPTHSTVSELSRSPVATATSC
Protocol: ERK Dephosphorylation Assay.
For this assay, 10 ng of GST-tagged recombinant phosphorylated ERK2 (R&D Systems, 1230-KS) was incubated with and without the indicated DUSP5 proteins (0.5 nM final concentration) for 15 min at room temperature, with or without the indicated drugs. The reactions were halted with 2× Laemmli sample buffer and subjected to SDS-PAGE. The proteins were transferred to polyvinylidene difluoride (PVDF) and immunoblotted using antibodies to pERK (Cell Signaling Tech., #9106) and Total ERK (Cell Signaling Tech., #9102). Bound antibodies were visualized using horseradish peroxidase-linked anti-mouse IgG (Cell Signaling Tech, #7076S) and anti-rabbit IgG (Cell Signaling Tech, #7074S), respectively, and ECL reagents (Pierce, 34708) according to the manufacturer's protocol. IC50s were calculated using GraphPad Prism 6 software.
And, the native substrate for DUSP5 is the pERK2 protein, which is much larger and capable of a more complicated range of inter-molecular interactions that the pNPP substrate (which is intended only to mimic the phospho-tyrosine of pERK). […] To this end, an assay was development using ERK2 and full-length DUSP5, monitoring pERK levels in a western blot, as a function of pERK2 substrate concentration. […] This surprising increase in potency for CSD3-2320 (but not NTS) with full length DUSP5 underscores the importance of performing secondary assays with biologically relevant forms of enzyme and substrate.

DUSP5 PD(WT) [2] = target: T2, DUSP5 PD(WT) (Homo sapiens, UniProt Q16690); assay: pNPP phosphatase activity assay with DUSP5 PD(WT); format: biochemical
T2 construct: hexa-histidine (N); made in house; host or cells: E. coli BL21(DE3)
T2 sequence (Q16690 178-319 limits assumed): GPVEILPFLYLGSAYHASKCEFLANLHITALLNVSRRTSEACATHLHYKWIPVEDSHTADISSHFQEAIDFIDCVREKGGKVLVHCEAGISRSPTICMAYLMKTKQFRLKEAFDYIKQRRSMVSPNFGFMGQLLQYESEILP
From the text: p-Nitrophenolphosphatase (pNPP) Activity Assay.
To measure enzymatic activity of the DUSP5 PD and the inhibitory capacity of selected molecules, an in vitro phosphatase assay was developed based on previous studies (27). In this assay, DUSP5 PD dephosphorylates the substrate p-nitrophenol phosphate (pNPP, Sigma Aldrich), yielding p-nitrophenolate, which absorbs at 405 nm with an extinction coefficient of 18,000 M-1 cm-1.
Thus, an increase in absorbance at 405 nm corresponds to the turnover of pNPP top-nitrophenolate. The assay was initially optimized in 1 mL quartz cuvettes, then was subsequently optimized for and validated in a 96-well plate format. All IC50 values were obtained using the 96-well plate assay format (see below). The assay buffer contained 100 mM Tris, 100 mM sodium chloride, 5 mM magnesium chloride, and 1 mM dithiothreitol (DTT) at pH 7.5. The pNPP substrate was prepared as a 50 mM stock by dissolving the solid substrate in assay buffer. The DUSP5 PD and pNPP were assayed initially in a cuvette (1 mL total volume) and initial velocities were fitted to the Michaelis-Menten equation (1)
where v is the initial velocity, Vmax is the maximum velocity, Km is the Michaelis constant, and [S] is the concentration of pNPP. Data were fitted using a nonlinear least squares fit to eq. 1, with GraphPad Prism 6 software.
For the 96-well plate validation assay, sodium orthovanadate (Sigma Aldrich) was utilized as a positive control for inhibition (Swarup et al., Biochem Biophys Res Commun. 1982; 107:1104-9.) at a final concentration of 10 μM, to completely block activity. All plate assays were performed in standard 96-well clear bottom plates (Thermo Scientific Nunc) with a total assay volume of 200 μL, using a SpectraMax M5 Microplate Reader (Molecular Devices). The plate validation assay was performed with replicate columns of positive control wells, negative control wells and blank wells. Blank columns contained only buffer and pNPP. Negative control (uninhibited) contained buffer, pNPP, and DUSP5 PD; and, positive control contained the same components, but also contained 10 μM sodium orthovanadate. The plate was then shaken and allowed to equilibrate in the spectrophotometer at 25° C. for 30 min. After incubation, 4 μL of a […] was dispensed into appropriate wells utilizing a single-channel pipette. This produced a final enzyme concentration of 1 μM. Before a read was taken, the plate was shaken for five seconds. The initial rate for the DUSP5 PD reaction was linear for approximately 90 min; and, the plate was kept in the spectrophotometer at 25° C. for an additional 80 min after the kinetic read. The endpoint reading was subsequently taken at 90 min after initiation of reaction. Slopes from the kinetic read, as well as single-point absorbance values at the 90-minute endpoint read, were then averaged. For blank wells and positive control wells, both slope values (continuous assay) and single point absorbance values (fixed time assay) were approximately zero, as expected. Standard deviations were calculated and a Z′ value (Zhang et al., J Biomol Screening. 1999; 4:67-73) subsequently determined using the following equation: […]
IC50 values were obtained using the assay described above, in 96 well plates. The maximum inhibitor concentration screened in any plate was […] and the minimum was 1.5 μM. The IC50 plate was designed so that the first column of wells served as blanks, with wells containing only buffer and substrate. The second column of wells functioned as the plate negative control, with each well containing buffer, substrate and enzyme. The remaining wells in the plate contained buffer, substrate, enzyme, and varying amounts of inhibitor, with inhibitor concentration increasing from left to right across the plate. Data points were collected in triplicate, and inhibitor concentrations were chosen to provide data equally spread on a logarithmic scale. […]

DUSP5 (PD)-WT = target: T3, DUSP5 (PD)-WT (Homo sapiens, UniProt Q16690); assay: Phosphatase inhibition profiles (Table 4), initial rates; format: biochemical; conditions: read-out: IC50 DUSP5 (PD)-WT (mean ± SE)
T3 construct: hexa-histidine (N); made in house; host or cells: E. coli BL21(DE3)
T3 sequence (Q16690 178-319): T2 sequence (Q16690 178-319 limits assumed)

PTPN1 = target: T4, PTPN1 (Homo sapiens, UniProt P18031); assay: as above; format: biochemical; conditions: read-out: IC50 PTPN1 (mean ± SE)
T4 sequence (P18031 1-435): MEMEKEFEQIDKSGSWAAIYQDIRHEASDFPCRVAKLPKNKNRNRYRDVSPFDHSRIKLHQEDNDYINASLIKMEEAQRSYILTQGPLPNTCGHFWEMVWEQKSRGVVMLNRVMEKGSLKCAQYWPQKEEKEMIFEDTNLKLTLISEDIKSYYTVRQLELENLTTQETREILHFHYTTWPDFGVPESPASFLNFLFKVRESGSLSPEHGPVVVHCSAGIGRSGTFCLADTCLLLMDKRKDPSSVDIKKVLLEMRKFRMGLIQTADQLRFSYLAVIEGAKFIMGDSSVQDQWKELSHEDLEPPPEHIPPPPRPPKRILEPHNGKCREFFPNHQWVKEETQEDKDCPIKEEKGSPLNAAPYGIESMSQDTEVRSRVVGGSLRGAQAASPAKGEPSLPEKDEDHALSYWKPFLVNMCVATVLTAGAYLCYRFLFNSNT

[3] = Aggregation of compounds (nephelometry; detergent treatment); format: physicochemical
Protocol: Nephelometry is a technique for measuring the relative aggregation of particles in solution, based on the light-scattering properties of molecular aggregates (30). To explore the ability of the chemicals studied herein to form aggregates, which can lead to artifactual inhibition effects, nephelometry was performed. Compounds were tested for aggregation in 96-well plates using a buffer containing 100 mM Tris base, 100 mM sodium chloride, and 5 mM magnesium chloride at pH 7.5. Each compound analyzed in these experiments contained concentrations of compound ranging from 10-100 μM, recorded in quadruplet. Each plate was analyzed at two separate gain values of 52 and 72. Data were collected using a BMG NEPHELOstar Plus, equipped with a 635 nm laser.
To investigate whether Suramin aggregates in solution, a property often investigated with small molecules, we performed detergent treatment assays. […] NTS and Suramin were compared using DUSP5 PD IC50 assays performed with and without detergent. […] We concluded that Suramin forms aggregates in vitro which can lead to non-specific protein inhibition effects. Beyond any adverse implications for repurposing Suramin in this project, the aggregation phenomenon raises more global concerns regarding the current clinical use of Suramin, and may in part explain some of the known toxicity associated with Suramin (32).

SHP-1 = SHP-1 (Homo sapiens, UniProt P29350); assay: NCI compound library screen, phosphatase inhibitory activity; format: biochemical
Sequence of SHP-1 (P29350 whole entry): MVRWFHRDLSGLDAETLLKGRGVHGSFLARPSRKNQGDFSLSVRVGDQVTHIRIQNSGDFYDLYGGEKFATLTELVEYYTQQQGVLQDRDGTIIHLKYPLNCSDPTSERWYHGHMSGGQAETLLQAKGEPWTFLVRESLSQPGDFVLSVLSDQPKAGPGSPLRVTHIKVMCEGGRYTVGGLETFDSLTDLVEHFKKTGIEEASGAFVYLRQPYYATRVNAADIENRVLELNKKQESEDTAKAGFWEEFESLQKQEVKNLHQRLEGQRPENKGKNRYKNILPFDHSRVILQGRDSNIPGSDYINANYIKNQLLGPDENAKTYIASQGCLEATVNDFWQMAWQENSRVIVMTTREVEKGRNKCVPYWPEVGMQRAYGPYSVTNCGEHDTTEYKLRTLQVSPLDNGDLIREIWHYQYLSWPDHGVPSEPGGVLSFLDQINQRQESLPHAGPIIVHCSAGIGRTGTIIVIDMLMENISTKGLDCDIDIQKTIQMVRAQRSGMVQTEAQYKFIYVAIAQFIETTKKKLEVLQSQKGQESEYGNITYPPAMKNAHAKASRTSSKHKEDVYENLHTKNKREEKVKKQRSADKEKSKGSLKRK

PTP1B = PTP1B (Homo sapiens, UniProt P18031); assay: as above; format: biochemical
phosphatase [4] = assay: Phosphatase inhibitory activity (Example 3, range of activity); format: biochemical
[5] = system: pERK levels in HUVEC cells; assay: pERK levels in HUVEC cells, western blot; format: cell-based, Human; conditions: HUVECs incubated 2 hours, pERK relative to total ERK; Na3VO4 at 200 μM
Protocol: Cell Culture and Western Blots.
Human Umbilical Vein Endothelial Cells (HUVECs) were maintained in EBM2 media (Lonza, CC-3156) supplemented with a combined serum and growth factor kit (Lonza, CC-4176). Cells were incubated with the indicated concentrations of drug for 2 h and lysed with RIPA buffer (Sigma, R0278) on ice. Cell lysates were cleared by centrifugation at 16,300×g for 30 min. The resulting supernatants were isolated and protein concentration determined by Lowry assay (DC protein assay, BioRad). 2× laemmli sample buffer was added to equal amounts of protein and separated by SDS-PAGE. The protein gels were transferred to polyvinylidene difluoride (PVDF) and immunoblotted using antibodies to phosphorylated ERK (Cell Signaling, #9106) and total ERK (Cell Signaling, #9102). Bound antibodies were visualized using horseradish peroxidase-linked anti-rabbit IgG, anti-mouse IgG (Cell Signaling Tech., #7074 and #7076) and ECL reagents (Thermo Scientific, 34080) according to the manufacturer's protocol.

DUSP5 PD(WT) [6] = target: T2, DUSP5 PD(WT); assay: pNPP phosphatase activity assay with DUSP5 PD(WT); format: biochemical; conditions: 1 mL cuvettes, pNPP substrate

Structure (SMILES): O=S(=O)(O)c1ccc2cc(N=Nc3cc(S(=O)(=O)O)c4cccnc4c3O)ccc2c1 [NSC-87877]
range of phosphatase inhibition, published compound (phosphatase [1]): ~1.7 mM

IC50 (full-length DUSP5; full-length DUSP5, pERK/ERK2 substrate): 221 ± 87 µM
Structure (SMILES): O=S(=O)(O)c1ccc2c(S(=O)(=O)O)cc(S(=O)(=O)O)cc2c1 [NTS, naphthalene 1,3,6-trisulfonate]

IC50's, range in words (DUSP5 PD(WT) [2]; enzyme inhibition (FIG. 3)): mM range
Structure (SMILES): O=S(=O)(O)c1cc(S(=O)(=O)O)c2[nH]c3c(S(=O)(=O)O)cc(S(=O)(=O)O)cc3c2c1 [RR506, Carbazole-1,3,6,8-tetrasulfonic acid, Tetrasodium Salt]

IC50 (DUSP5 (PD)-WT): 26.4 ± 7.2 µM
IC50 (PTPN1): 106 ± 0.1 µM
Structure (SMILES): O=S(=O)(O)c1cc(Oc2cc(S(=O)(=O)O)cc(S(=O)(=O)O)c2O)c(O)c(S(=O)(=O)O)c1 [RR533]

aggregation [3]: do not aggregate
IC50 (PTPN1): > 1000 µM
phosphatase inhibitory activity (SHP-1): phosphatase inhibitory activity
phosphatase inhibitory activity (PTP1B): phosphatase inhibitory activity
range in which active (phosphatase [4]; monomer): ~1e-06 mM
Structure (SMILES): Nc1cccc2c(O)cc(S(=O)(=O)O)cc12 [RR535]

aggregation [3]: do not aggregate
IC50 (DUSP5 (PD)-WT): 30 ± 3 µM
IC50 (PTPN1): 2.5 ± 0.1 µM
range in which active (phosphatase [4]; dimer): ~30 mM
Structure (SMILES): O=S(=O)(O)c1cc(O)c2cccc(N=Nc3cccc4c(O)cc(S(=O)(=O)O)cc34)c2c1 [RR601]

activity in DUSP5:pERK assay, in words (full-length DUSP5; in vitro, western blot): robust activity
Structure (SMILES): O=S(=O)([O-])c1cc2c(O)c(c1)Cc1cc(S(=O)(=O)[O-])cc(c1O)Cc1cc(S(=O)(=O)[O-])cc(c1O)Cc1cc(S(=O)(=O)[O-])cc(c1O)C2.[Na+].[Na+].[Na+].[Na+] [RR701]

inhibition at 1 µM (DUSP5 PD(WT) [2]; 1 μM Suramin, 5 mM pNPP, increasing Triton X-100, read-out: plateau level inhibition with increasing detergent): 30%
mechanism of inhibition (DUSP5 PD(WT) [2]; inhibition profile versus pNPP): competitive inhibition
Ki (DUSP5 PD(WT) [2]; read-out: Ki, competitive inhibition, varied pNPP and inhibitor): 24.6 µM and 25 µM
aggregation [3]: Aggregates
Structure (SMILES): Cc1ccc(C(=O)Nc2ccc(S(=O)(=O)O)c3cc(S(=O)(=O)O)cc(S(=O)(=O)O)c23)cc1NC(=O)c1cccc(NC(=O)Nc2cccc(C(=O)Nc3cc(C(=O)Nc4ccc(S(=O)(=O)O)c5cc(S(=O)(=O)O)cc(S(=O)(=O)O)c45)ccc3C)c2)c1 [Suramin]
effect of detergent on inhibition (DUSP5 PD(WT) [2]; IC50 measurement in presence and absence of 0.5% Triton): loss of some inhibitory capability in the presence of detergent
effect on pERK levels [5]: significant decrease in pERK levels

IC50 (DUSP5 PD(WT) [6]): 0.008 ± 0.008 µM
Structure (SMILES): [Na+].[Na+].[Na+].[O]=[V]([O-])([O-])[O-] [sodium orthovanadate]
effect on pERK levels [5]: expected increase in pERK levels
